assay: Antagonist activity at CXCR3 assessed as inhibition of ITAC-mediated cell migration in presence of 100% human serum

| SMILES | IC50 [nM] |
| --- | --- |
| C[C@H](c1nc2ncccc2c(=O)n1-c1ccc(F)cc1)N(CC1CCS(=O)(=O)CC1)C(=O)Cc1ccc(F)c(C(F)(F)F)c1 | 72 |
| C[C@H](c1nc2ncccc2c(=O)n1-c1ccc(F)cc1)N(CC1CCS(=O)(=O)CC1)C(=O)Cc1ccc(C(F)(F)F)c(F)c1 | 90 |
| CCS(=O)(=O)CCN(C(=O)Cc1ccc(C(F)(F)F)c(F)c1)[C@H](C)c1nc2ncccc2c(=O)n1-c1ccc(C#N)cc1 [(R)-N-(1-(3-(4-cyanophenyl)-4-oxo-3,4-dihydropyrido[2,3-d]pyrimidin-2-yl)ethyl)-N-(2-(ethylsulfonyl)ethyl)-2-(3-fluoro-4-(trifluoromethyl)phenyl)acetamide] | 47 |
| CCS(=O)(=O)CCN(C(=O)Cc1ccc(C(F)(F)F)c(F)c1)[C@H](C)c1nc2ncccc2c(=O)n1-c1ccc(F)cc1 | 292 |
| C[C@H](c1nc2ccccn2c(=O)c1-c1ccc(C#N)cc1)N(CC1CCS(=O)(=O)CC1)C(=O)Cc1ccc(OC(F)(F)F)cc1 | 60 |
| C[C@H](c1nc2ncccc2c(=O)n1-c1ccc(C#N)cc1)N(CC1CCS(=O)(=O)CC1)C(=O)Cc1ccc(F)c(C(F)(F)F)c1 | 39 |

The next lines start with the values.

| IC50 [nM] | SMILES |
| --- | --- |
| 107 | CCS(=O)(=O)CCN(C(=O)Cc1ccc(C(F)(F)F)c(F)c1)[C@H](C)c1nc2ncccc2c(=O)n1-c1ccc(Cl)cc1 |
| 55 | C[C@H](c1nc2ncccc2c(=O)n1-c1ccc(Cl)cc1)N(CC1CCS(=O)(=O)CC1)C(=O)Cc1ccc(C(F)(F)F)c(F)c1 |
| 45 | C[C@H](c1nc2ncccc2c(=O)n1-c1ccc(Cl)cc1)N(CC1CCS(=O)(=O)CC1)C(=O)Cc1ccc(F)c(C(F)(F)F)c1 |
| 37 | C[C@H](c1nc2ncccc2c(=O)n1-c1ccc(C#N)cc1)N(CC1CCS(=O)(=O)CC1)C(=O)Cc1ccc(C(F)(F)F)c(F)c1 |
| 254 | CCS(=O)(=O)CCN(C(=O)Cc1ccc(F)c(C(F)(F)F)c1)[C@H](C)c1nc2ncccc2c(=O)n1-c1ccc(F)cc1 |
| 102 | CCS(=O)(=O)CCN(C(=O)Cc1ccc(F)c(C(F)(F)F)c1)[C@H](C)c1nc2ncccc2c(=O)n1-c1ccc(Cl)cc1 |

From BindingDB's records for doi:10.1016/j.bmcl.2011.10.120 (Amgen, 2011)
